The source of these data is US6300501A, “Histidine-(N-benzyl glycinamide) inhibitors of protein farnesyl transferase” (Warner-Lambert Company, priority 1998, dated 2001).

Like-named read-outs stand apart in the source and are kept apart here.

In data set [1] the test system is human lung carcinoma with K-ras mutation and p53 deletion. The following applies: nude mice; cited from earlier work.
Data set [2] has as its system EJ-1 human bladder carcinoma, HT1080 human fibrosarcoma and human colon carcinoma xenografts. The following applies: 100 mg/kg; cited from earlier work.
The subject of data set [3] is mammary and salivary carcinomas. To be noted: daily administration; cited from earlier work.
The target of data set [4] is T1, SF9 affinity purified rat farnesyl protein transferase (Rattus norvegicus, UniProt Q02293+Q04631).
T1 construct: made in house; host or cells: Sf9 insect cells (baculovirus system inferred from b7)
As to the kind of experiment: PFT inhibitory activity (radiolabeled farnesyl pyrophosphate, streptavidin bead assay). Type of data set: biochemical. The procedure, abridged: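 HEPES pH 7.4 with 5 mM potassium phosphate (also run without), 20 μM ZnCl2, 5 mM DTT, 5 mM MgCl2, 0.1% PEG 8000; [3H]farnesyl pyrophosphate 134 nM and biotinyl-Ahe-TKCVIM peptide 0.2 μM final. Incubated 30 min at 30° C, stopped with acidic magnesium acetate/streptavidin bead buffer; bead-bound radioactivity counted.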

The subject of data set [5] is ras farnesylation in ras-transformed cells. As to the kind of experiment: Gel shift assay. Type of data set: cell-based. The following applies: ras-transformed cells, 18-hour incubation; read-out: Gel Shift (μM) MED (minimal effective dose to observe inhibition of ras farnesylation). The gist of the method:
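Ras-transformed cells (2×10^6 per condition) treated with farnesylation inhibitor at varying concentrations for 18 h. Ras immunoprecipitated from lysates with Y13-259, resolved on 14% SDS gels and detected by pan-ras Western blot with ECL, farnesylated and unfarnesylated ras separating by mobility shift.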

The subject of data set [6] is H61 tumor cell xenografts. The experiment in a line: In vivo assay: H61 tumor xenografts in nude mice. As for the experimental part: The compound described in Example 15 was tested for its ability to inhibit the growth of H61 tumor cell xenografts in nude mice. H61 Cells are fibroblasts transformed to a malignant state by transfection with an activated mutant form of human h-ras. Ten to 30 mg fragments of H61 tumors were inoculated SC (subcutaneously) in the axial region into female nude mice with a trocar needle on day zero of the experiment. The mice were randomized to treatment groups and were then given SC injections of the compound described in Example 15 suspended in 10% cremofor/10% ethanol/80% water twice each day on Days 3-17 of the experiment. At Day 12 of the experiment, the median control tumor burden was 1958 mg as assessed by caliper measurements.

Data set [7] deals with H61 cells: NIH transformed 3T3 H-ras cells. The experiment in a line: Clonogenic assay (6 well plates, soft agar). Type of data set: cell-based. The following applies: 312 h, colonies counted after Day 13, read-out: Clonogenic Assay IC50. The gist of the method: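 Soft-agar colony formation: cells seeded in 0.3% agar top layer with 20% calf serum over a 0.6% agar base, drug or DMSO added at 4 µL per mL agar/medium. Incubated at 37 °C, 5% CO2; INT (1 mg/mL) added on day 13 to stain colonies.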

Setting [8] is: HEPES buffer pH 7.4, without 5 mM potassium phosphate, read-out: IC50 (μM) Hepes.
[9] abbreviates: HEPES buffer pH 7.4 containing 5 mM potassium phosphate, read-out: IC50 (μM) 5 mM K3 PO4 -2.

T1 sequence (Q02293 whole entry, one chain of several): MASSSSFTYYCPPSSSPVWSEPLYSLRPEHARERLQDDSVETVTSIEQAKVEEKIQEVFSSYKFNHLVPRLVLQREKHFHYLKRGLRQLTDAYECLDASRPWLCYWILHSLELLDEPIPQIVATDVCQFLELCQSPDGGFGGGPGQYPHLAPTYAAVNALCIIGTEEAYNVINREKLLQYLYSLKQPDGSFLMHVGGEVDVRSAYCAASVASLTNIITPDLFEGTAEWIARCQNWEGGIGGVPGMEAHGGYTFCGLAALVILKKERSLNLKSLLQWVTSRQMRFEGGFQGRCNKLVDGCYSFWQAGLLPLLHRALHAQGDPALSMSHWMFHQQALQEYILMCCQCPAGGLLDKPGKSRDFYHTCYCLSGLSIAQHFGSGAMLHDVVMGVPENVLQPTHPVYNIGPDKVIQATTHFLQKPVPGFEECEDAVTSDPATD

`CSCC[C@H](NC(=O)c1ccc(NC[C@@H](N)CS)cc1-c1ccccc1)C(=O)O` [FTI276]: the tumor growth entry in data set [1] was “selectively block tumor growth”.
As for `COC(=O)[C@H](CCSC)NC(=O)[C@H](/C=C\[C@@H](/C=C/[C@@H](N)CS)C(C)C)Cc1ccccc1` [Example B1086], the tumor growth result in data set [2] is given as “inhibit tumor growth”.
Regarding `CC[C@H](C)[C@@H](CO[C@@H](Cc1ccccc1)C(=O)N[C@@H](CCS(C)(=O)=O)C(=O)OC(C)C)NC[C@@H](N)CS` [L-744,832], the tumor regression result in data set [3] was “caused tumor regression”.
As for `CC(C)(CNC(=O)CN(Cc1ccc(OCc2ccccc2)cc1)C(=O)[C@H](Cc1cnc[nH]1)NC(=O)OCc1ccccc1)c1ccccc1` [Example 15, (S)-[1-{(4-Benzyloxy-benzyl)-[(2-methyl-2-phenyl-propylcarbamoyl)-methyl]-carbamoyl}-2-(3H-imidazole-4-yl)-ethyl]-carbamic Acid Benzyl Ester], the 50% inhibitory concentration (IC50) (in general, the concentration that inhibits the measured activity by half) in data set [4] (setting [8]) came out at 0.12 µM; in data set [4] (setting [9]), 0.007 µM; in data set [7] it was 190 nM. Further, the minimal effective concentration in data set [5] lay within 0.01 to 0.05 µM. In addition, the median tumor burden in data set [6] (125 mg/kg/injection SC twice each day, Days 3-17, Day 12, median control tumor burden 1958 mg) is 106 mg. Moreover, the “inhibition of tumor growth” value in data set [6] (125 mg/kg/injection SC twice each day, Day 12) came to 95%. The tumor growth delay result in data set [6] (125 and 78 mg/kg/injection dose levels) was “tumor growth delay also consistent with significant inhibition of tumor growth”. Also, in data set [6] (125 and 78 mg/kg/injection dose levels, nude mice), the “tolerability / host toxicity” value was “well-tolerated with minimal or no host toxicity”.
As for `COc1ccc(CN(CC(=O)NCC(C)c2ccccc2)C(=O)[C@H](Cc2c[nH]cn2)NC(=O)OCc2ccccc2)cc1` (stereo partly drawn) [Example 20, (S)-(2-(1H-Imidazole-4-yl)-1-{(4-methoxy-benzyl)-[(2-phenyl-propylcarbamoyl)-methyl]-carbamoyl}-ethyl)-carbamic Acid Benzyl Ester], the concentration for half-maximal inhibition (IC50) in data set [4] (setting [8]) came out at 1.5 µM; in data set [4] (setting [9]), 0.017 µM; in data set [7], 460 nM. Besides, in data set [5], the minimal effective concentration stood at 0.05 µM.
For `O=C(CN(Cc1ccc(OCc2ccccc2)cc1)C(=O)[C@H](Cc1c[nH]cn1)NC(=O)OCc1ccccc1)NCC(c1ccccc1)c1ccccc1Cl` (stereo partly drawn) [Example 24, (S)-[1-((4-Benzyloxy-benzyl)-{[2-(2-chloro-phenyl)-2-phenyl-ethylcarbamoyl]-methyl}-carbamoyl)-2-(1H-imidazole-4-yl)-ethyl]-carbamic Acid Benzyl Ester], the IC50 was 0.2 µM in data set [4] (setting [8]), 0.014 µM in data set [4] (setting [9]) and 820 nM in data set [7]. For the same molecule, the minimal effective concentration in data set [5] was found to be 0.2 µM.
On to `O=C(CN(Cc1ccc(OCc2ccccc2)cc1)C(=O)[C@H](Cc1c[nH]cn1)NC(=O)OCc1ccccc1)NCCc1ccccc1Br` [Example 9, (S)-[1-((4-Benzyloxy-benzyl)-{[2-(2-bromo-phenyl)-ethylcarbamoyl]-methyl}-carbamoyl)-2-(1H-imidazole-4-yl)-ethyl]-carbamic Acid Benzyl Ester], for which the IC50 in data set [4] (setting [8]) is 4.5 µM; in data set [4] (setting [9]) it was 0.36 µM; in data set [7], above 1000 nM. Also, in data set [5], the minimal effective concentration stood at 0.2 µM.
